Measurements taken from patent US12697325B2 (TENNOR THERAPEUTICS (SUZHOU) LIMITED, priority 2021, dated 2026).
Read-outs that look alike come from different tables or passages of the source.

Assays:
[1] = tested on: Acinetobacter baumannii strains; assay: Minimum inhibitory concentration (CLSI M07), Example 2, 20 strains; assay type: cell-based; settings: for MIC: read-out: MIC
Experimental: The minimum inhibitory concentration (MIC) was determined in accordance with the requirements of the Clinical and Laboratory Standards Institute (CLSI) M07 (for aerobic bacteria).
3.1 The compounds were diluted with DMSO up to 100 times of the highest concentration tested.
The steps of manual dilution are as follows (example): firstly, the compound or antibiotic was diluted to 100 times of the maximum final concentration tested, then 60 μL of compound mother liquor was added to the first column of the 96-well plate, and 30 μL of DMSO was added to each well in the second to the 12th column; 30 μL of the liquid was transferred from the first column to the second column. After being pipetted up and down to even, 30 μL was transferred to the third column, and was diluted in sequence at a 2-fold gradient for a total of 10 times; then 30 μL was removed from each well in the 11th column, then a compound solution diluted at 2-fold gradient was obtained and 1 μL was transferred to a 96-well test plate.
Aerobic bacteria: the strains were inoculated on MHA one day in advance and incubated overnight at 37° C. On the day of the assay, 5-6 single colonies were picked and suspended evenly in saline, and the bacterial concentration was adjusted to the turbidity of 0.5 McFarland standard (concentration is about 1×10^8 CFU/mL). The bacterial suspension was diluted at 200-fold with the corresponding liquid culture medium (Table 1), i.e., the bacterial concentration was ~5×10^5 CFU/ml, and then 100 μL of the liquid was transferred to a 96-well round bottom plate (the 96-well plate with compound prepared in 4.2, Echo method) to obtain the test plate. If the compound was manually diluted, then 99 μL of the solution was transferred into a 96-well round bottom plate. The 96-well round bottom plate obtained above was placed into an incubator at 37° C. and 85% humidity to incubate for 20 h.

[2] = Pharmacokinetics in plasma and bronchoalveolar lavage fluid of female CD-1 mice; assay type: in vivo; settings: mouse, female CD-1 mice
Experimental: An appropriate amount of the test drug was accurately weighed and mixed with the appropriate volume of vehicle (5% DMSO+0.5% Tween 80 in normal saline) to obtain a clear solution for the test in Table 9. The formulation solution for injection was prepared to sterile filtration through a 0.22 μm filter prior to administration. The mice were dosed with the drug within 30 min after the formulated solution for injection was prepared. A 1.5 mL of the formulation solution for injection was transferred into a polypropylene microcentrifuge tube for dose verification by LC/UV or LC-MS/MS.
All blood samples were transferred to pre-frozen EDTA-K2 tubes and placed on wet ice until centrifugation. […]
Plasma: approximately 100 μL of blood sample was transferred into pre-cooled commercial EDTA-K2 tubes and placed on wet ice until centrifugation. After the blood samples were centrifuged at approximately 4° C. and 3, 200 g for 10 min, plasma was collected and transferred to pre-labeled 96-well plates or polypropylene tubes, flash frozen on dry ice, and stored at ≤−60° C. until the analysis by LC-MS/MS.
Serum: approximately 100 μL of blood sample was transferred into a tube without anticoagulant and placed on wet ice for approximately 30 min and centrifuged at 4° C. and 3,000 g for 10 min, and the serum was collected and transferred into pre-labeled PP tubes placed on wet ice. After the completion of all the collections, serum samples were stored at −60° C. until being sent to the animal experimental team to determine urea concentration.
Bronchoalveolar lavage fluid (BALF): pre-cooled tracheo-alveolar lavage fluid was injected into the trachea or predefined bronchi. After a full expansion of the lung tissue, the lavage fluid was slowly drawn out with a syringe 30 s later. The lung was lavaged three times. During the last lavage, the lung tissue was gently squeezed to restore the fluid. To prevent contamination of other lung tissues, the corresponding bronchi were ligated. Both lungs of the mice were perfused with 0.8 mL.
[…] Approximately 200 μL of the BALF samples were transferred into a polypropylene tube, rapidly frozen on dry ice, maintained at ≤−60° C., and sent to the animal experimental team to determine urea concentration. The remaining BALF samples (approximately 600 μL) were rapidly frozen on dry ice and maintained at ≤−60° C. until being submitted for drug concentration analysis by LC-MS/MS.

Question: What does the source list for `CC1(C)[C@H](C(=O)[O][Na+])N2C(=O)C[C@H]2S1(=O)=O` [Sulbactam sodium, sulbactam sodium]?
Answer: MIC ([1]; Acinetobacter baumannii, ATCC17978, strain ATCC 17978): 8 µg/mL; MIC ([1]; Acinetobacter baumannii, ATCC19606, strain ATCC 19606): 2 µg/mL; MIC ([1]; Acinetobacter baumannii, ATCCBAA1605, strain ATCC-BAA-1605): 32 µg/mL; MIC ([1]; Acinetobacter baumannii, ATCCBAA1789, strain ATCC-BAA-1789): 4 µg/mL; MIC ([1]; Acinetobacter baumannii, ATCCBAA1790, strain ATCC-BAA-1790): 16 µg/mL; MIC ([1]; Acinetobacter baumannii, ATCCBAA1791, strain ATCC-BAA-1791): 8 µg/mL; MIC ([1]; Acinetobacter baumannii, ATCCBAA1792, strain ATCC-BAA-1792): 32 µg/mL; MIC ([1]; Acinetobacter baumannii, ATCCBAA1793, strain ATCC-BAA-1793): 32 µg/mL; MIC ([1]; Acinetobacter baumannii, ATCCBAA1794, strain ATCC-BAA-1794): 8 µg/mL; MIC ([1]; Acinetobacter baumannii, ATCCBAA1795, strain ATCC-BAA-1795): 64 µg/mL; MIC ([1]; Acinetobacter baumannii, ATCCBAA1796, strain ATCC-BAA-1796): 16 µg/mL; MIC ([1]; Acinetobacter baumannii, ATCCBAA1797, strain ATCC-BAA-1797): 8 µg/mL; MIC ([1]; Acinetobacter baumannii, ATCCBAA1798, strain ATCC-BAA-1798): 16 µg/mL; MIC ([1]; Acinetobacter baumannii, ATCCBAA1799, strain ATCC-BAA-1799): 64 µg/mL; MIC ([1]; Acinetobacter baumannii, ATCCBAA1800, strain ATCC-BAA-1800): 32 µg/mL; MIC ([1]; Acinetobacter baumannii, strain ARLG-1791): 32 µg/mL; MIC ([1]; Acinetobacter baumannii, strain ARLG-1809): 32 µg/mL; MIC ([1]; Acinetobacter baumannii, strain ARLG-1852): 16 µg/mL; MIC ([1]; Acinetobacter baumannii, strain ARLG-1853): 32 µg/mL; MIC ([1]; Acinetobacter baumannii, strain ARLG-1881): 128 µg/mL; MIC50 ([1]; Acinetobacter baumannii, Example 2, 20 strains, read-out: MIC50): 32 µg/mL; MIC90 ([1]; Acinetobacter baumannii, Example 2, 20 strains, read-out: MIC90): 64 µg/mL; MIC range ([1]; Example 2, 20 strains): 2 to 128 µg/mL; MIC of this strain BAA-1795 (component in the combination) ([1]; strain BAA-1795): 8 µg/mL; MIC of the strain BAA-1795 (component in the combination) ([1]; strain BAA-1795, sulbactam/avibactam 4:1, concentration of the named component): 8 µg/mL; Kp ([2]; BALF/plasma, intravenous, 150 mg/kg, BALF column, read-out: AUC Ratio): 0.0248; AUC(0-t) ([2]; bronchoalveolar lavage fluid (BALF), intravenous dripping 150 mg/kg, BALF, read-out: AUC0-last, BALF): 1310 ng·h/mL; Cmax ([2]; bronchoalveolar lavage fluid (BALF), intravenous dripping 150 mg/kg, BALF, read-out: Cmax, mean BALF concentration): 617 ng/mL; MRT last ([2]; bronchoalveolar lavage fluid (BALF), intravenous dripping 150 mg/kg, BALF, read-out: MRT0-last, BALF): 103 min; half-life ([2]; bronchoalveolar lavage fluid (BALF), intravenous dripping 150 mg/kg, BALF, read-out: T1/2, BALF (converted)): 43.5 min; Tmax ([2]; bronchoalveolar lavage fluid (BALF), intravenous dripping 150 mg/kg, BALF, read-out: Tmax, BALF): 180 min; clearance ([2]; intravenous dripping 150 mg/kg, plasma): 47.2 mL/min/kg; AUC(0-t) ([2]; intravenous dripping 150 mg/kg, plasma, read-out: AUC0-last, plasma): 52900 ng·h/mL; Cmax ([2]; intravenous dripping 150 mg/kg, plasma, read-out: Cmax, mean plasma concentration): 19600 ng/mL; MRT last ([2]; intravenous dripping 150 mg/kg, plasma, read-out: MRT0-last, plasma): 26.4 min; half-life ([2]; intravenous dripping 150 mg/kg, plasma, read-out: T1/2, plasma (converted)): 52.4 min; Tmax ([2]; intravenous dripping 150 mg/kg, plasma, read-out: Tmax, plasma): 60 min; Vd ([2]; intravenous dripping 150 mg/kg, plasma, read-out: Vdss): 1.26 L/kg
